Test results reported in ChEMBL document CHEMBL2074062, “Active intestinal secretion of new quinolone antimicrobials and the partial contribution of P-glycoprotein” (J Pharm Pharmacol, 2001).

Legend:
[1] = biological target: ATP-dependent translocase ABCB1 (Homo sapiens, UniProt P08183); assay: TP_TRANSPORTER: transepithelial transport (basal to apical) in MDR1-expressing LLC-PK1 cells; format: functional, cell-based; conditions: pig
[2] = biological target: ATP-dependent translocase ABCB1 (Mus musculus, UniProt P21447); assay: TP_TRANSPORTER: decrease in intestinal clearance in mdr1a(-/-) mouse; format: functional, tissue-based, Intestine
Sequence of ATP-dependent translocase ABCB1 (Mus musculus, UniProt P21447) (P21447 whole entry): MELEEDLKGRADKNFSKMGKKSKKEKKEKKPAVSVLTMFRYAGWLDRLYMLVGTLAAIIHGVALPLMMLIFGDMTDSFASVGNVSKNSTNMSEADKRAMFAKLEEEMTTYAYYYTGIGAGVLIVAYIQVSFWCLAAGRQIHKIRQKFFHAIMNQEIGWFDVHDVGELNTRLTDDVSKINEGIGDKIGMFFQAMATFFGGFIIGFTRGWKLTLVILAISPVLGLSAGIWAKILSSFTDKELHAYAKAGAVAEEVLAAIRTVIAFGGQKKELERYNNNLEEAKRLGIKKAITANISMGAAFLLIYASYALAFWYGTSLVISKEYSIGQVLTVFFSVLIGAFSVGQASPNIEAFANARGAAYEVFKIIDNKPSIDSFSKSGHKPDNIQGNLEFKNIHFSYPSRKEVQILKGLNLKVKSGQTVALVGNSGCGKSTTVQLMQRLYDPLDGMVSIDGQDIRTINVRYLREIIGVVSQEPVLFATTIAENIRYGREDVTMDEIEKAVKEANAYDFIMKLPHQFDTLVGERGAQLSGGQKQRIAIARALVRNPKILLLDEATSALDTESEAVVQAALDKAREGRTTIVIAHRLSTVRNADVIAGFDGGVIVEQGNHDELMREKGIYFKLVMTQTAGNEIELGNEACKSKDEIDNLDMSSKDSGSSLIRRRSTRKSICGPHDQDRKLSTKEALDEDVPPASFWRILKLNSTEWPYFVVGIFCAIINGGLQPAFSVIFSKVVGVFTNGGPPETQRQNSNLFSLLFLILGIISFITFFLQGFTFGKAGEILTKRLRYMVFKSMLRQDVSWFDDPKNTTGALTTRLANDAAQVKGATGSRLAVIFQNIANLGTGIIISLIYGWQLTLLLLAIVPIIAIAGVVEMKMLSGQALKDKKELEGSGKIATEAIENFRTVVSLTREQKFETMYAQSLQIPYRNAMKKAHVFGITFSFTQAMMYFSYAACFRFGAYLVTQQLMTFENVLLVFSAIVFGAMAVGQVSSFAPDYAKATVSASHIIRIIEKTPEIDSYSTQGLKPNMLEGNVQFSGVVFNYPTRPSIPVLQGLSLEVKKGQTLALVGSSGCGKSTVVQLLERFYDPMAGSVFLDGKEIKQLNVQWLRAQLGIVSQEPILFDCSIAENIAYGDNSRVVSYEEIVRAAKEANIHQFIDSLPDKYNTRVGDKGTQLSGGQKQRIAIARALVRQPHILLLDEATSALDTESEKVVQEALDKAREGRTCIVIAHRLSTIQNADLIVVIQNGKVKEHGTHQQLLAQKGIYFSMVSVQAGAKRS

Sequence of ATP-dependent translocase ABCB1 (Homo sapiens, UniProt P08183) (P08183 whole entry): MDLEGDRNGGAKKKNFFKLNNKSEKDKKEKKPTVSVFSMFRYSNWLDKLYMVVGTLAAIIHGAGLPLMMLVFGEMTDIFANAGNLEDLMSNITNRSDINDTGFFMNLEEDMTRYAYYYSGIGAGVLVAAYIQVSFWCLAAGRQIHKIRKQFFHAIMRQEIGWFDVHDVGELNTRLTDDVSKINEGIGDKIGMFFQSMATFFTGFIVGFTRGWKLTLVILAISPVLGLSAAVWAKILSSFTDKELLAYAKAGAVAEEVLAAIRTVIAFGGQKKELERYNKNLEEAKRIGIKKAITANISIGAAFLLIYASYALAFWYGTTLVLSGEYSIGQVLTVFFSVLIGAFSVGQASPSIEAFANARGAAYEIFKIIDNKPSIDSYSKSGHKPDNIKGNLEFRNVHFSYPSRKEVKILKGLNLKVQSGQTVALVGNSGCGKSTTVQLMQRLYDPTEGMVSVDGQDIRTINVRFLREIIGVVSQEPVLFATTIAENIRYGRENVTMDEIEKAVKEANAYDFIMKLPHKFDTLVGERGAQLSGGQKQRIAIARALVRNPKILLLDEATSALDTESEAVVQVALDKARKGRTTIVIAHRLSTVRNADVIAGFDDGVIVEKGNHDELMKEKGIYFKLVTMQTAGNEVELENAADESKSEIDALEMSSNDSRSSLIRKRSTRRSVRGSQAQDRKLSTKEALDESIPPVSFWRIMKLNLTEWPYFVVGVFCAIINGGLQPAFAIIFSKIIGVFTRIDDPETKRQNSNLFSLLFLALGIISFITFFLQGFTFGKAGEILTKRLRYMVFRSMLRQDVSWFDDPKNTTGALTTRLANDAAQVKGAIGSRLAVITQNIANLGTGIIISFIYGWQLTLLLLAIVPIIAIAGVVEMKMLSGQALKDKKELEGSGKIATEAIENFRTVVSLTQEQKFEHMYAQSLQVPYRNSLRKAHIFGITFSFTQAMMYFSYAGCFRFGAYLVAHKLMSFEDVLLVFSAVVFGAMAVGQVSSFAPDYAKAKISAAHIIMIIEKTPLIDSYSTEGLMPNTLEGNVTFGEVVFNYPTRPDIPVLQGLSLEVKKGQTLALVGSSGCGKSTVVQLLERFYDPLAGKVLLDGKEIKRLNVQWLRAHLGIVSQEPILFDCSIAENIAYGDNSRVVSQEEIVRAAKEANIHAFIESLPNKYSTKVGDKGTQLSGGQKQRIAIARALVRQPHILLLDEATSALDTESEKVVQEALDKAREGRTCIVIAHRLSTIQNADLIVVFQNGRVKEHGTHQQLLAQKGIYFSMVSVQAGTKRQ

Activity [1] | Activity [2] | SMILES
substrate [+] | substrate [+] | Cc1c(F)c(N2CCNC(C)C2)cc2c1c(=O)c(C(=O)O)cn2C1CC1 (stereo not drawn) [GREPAFLOXACIN]
substrate [+] | – | C[C@@H]1CN(c2c(F)c(N)c3c(=O)c(C(=O)O)cn(C4CC4)c3c2F)C[C@H](C)N1 [SPARFLOXACIN]
